US20030055106A1, “Therapeutic uses of peroxometallic compounds” (priority 1999, published 2003)

Legend:
[1] = test system: Human umbilical vein endothelial cells (HUVECs); settings: read-out: approximate IC50, endothelial cell proliferation; 96 hours in culture
Experimental: Each experiment was performed in triplicate. The culture medium was changed daily.

Leishmania major = assay: Leishmania vaccination trial (adjuvant); parameters: species or system BALB/c mice; settings: in vivo, Leishmania infection
Experimental: FIG. 10: Use of bpV(phen) as an adjuvant in Leishmania vaccination trial. BALB/c mice were inoculated with soluble Leishmania major antigen (SLA; 100 μg) with or without daily injection of bpV(phen) ([…]) for 5 days. Two weeks later animals received a second set of treatment as above. Control animals received either PBS or bpV(phen) alone without any SLA. At 4 weeks post-vaccination, animals were challenged with 5 million Leishmania major stationary phase promastigotes injected in the right hind footpad. Progression of infection was followed by measuring footpad thickness with a caliper on a weekly basis. Differences measured for reduced footpad thickness were significant (p<0.01, Student's t test, n=5-10 animals per group) over their respective controls.
In the past, use of total and soluble Leishmania antigen (SLA) for vaccination has been reported and permitted some levels of protection against infectious challenges (85). Using a murine model, we have tested whether bpV(phen)-modulated cytokine and chemokine generation (as reported above) in combination with SLA administration could lead to protection against Leishmania infection. Mice have received PBS and bpv(phen) as controls, and SLA (100 μg) with or without daily bpV(phen) injection (500 nM, 5 days). All injections were done intra-peritoneally. […]

murine B10R macrophages = assay: Chemokine mRNA expression (RNase protection); type: cell-based
Experimental: FIG. 9: Effect of bpV(phen) on chemokine mRNA expression in murine B10R macrophages. (A) Cells were incubated for 2 h with or without various concentrations of bpV(phen) (1-50 μM). Total RNA was isolated and analyzed by RNase protection. (B) Kinetic expression of chemokine genes in murine BIOR macrophages. Cells were incubated for increasing period of time (1-4 h) with or without bpV(phen) at 10 μM. Following extraction of total RNA, RNase protection assay was performed. Free RNA probe is shown in the far left lane. The fold increase was calculated from the densitometry of the autoradiogam.
Various concentrations of bpv(phen) were added to B10R macrophages for4 h. mRNA expression was measured by RNase protection assays. RANTES, MIP-1a/β MIP-2, IP-10 and MCP-1 chemokine mRNA levels increased in response to bpv(phen) (FIG. 9A). MCP-1, MIP-2, MIP-1β and RANTES were induced by the addition of bpv(phen) in a dose-dependent manner whereas IP-10 and MIP-1a were expressed at markedly lower concentrations (10 μM).
To determine the kinetics of chemokine expression following pV compound treatment, B10R macrophages were incubated with 10 ?M bpV(phen) for increasing time intervals. Total RNA was extracted from macrophages at various time-points and subjected to RNase protection assay. […] Thus, conditions for the induction of chemokine expression in response to bpV(phen) seems to vary with the different chemokines.

[2] = test system: ZR-75-1 human breast cancer; assay: ZR-75-1 human breast cancer xenograft; type: in vivo, Female homozygous HSD nu/nu athymic mice; settings: 2.5 mg/Kg daily i.p., 42 days; E1 replacement
Experimental: A) ZR-75-1 human breast cancer: ZR-75-1 human breast cancer cells obtained from the American Tissue Culture Collection (Rockville, Md.) were cultured in phenol red-free RPMI 1640. […] Female homozygous HSD nu/nu athymic mice (50 days old) were obtained from Harlan Sprague Dawley Inc. (Indianapolis, Ind.). Five mice were housed per vinyl cage, which was equipped with air filter lids and kept in laminar air flow hoods under pathogen-limiting conditions. The photoperiod was composed of a period of 14 h of light and a period of 10 h of darkness. Cages, bedding, and food (Agway Pro-Lab R-M-H diet #4018) were autoclaved prior to use. […] Bilateral ovariectomy (OVX) was performed on all animals one week prior to cell inoculation, under 2.5% isoflurane anesthesia mixed with oxygen. Simultaneously, an oestrogen (E2) implant was inserted subcutaneously to stimulate […] tumor growth and appearance. E2 implants were prepared in 1-cm long silastic tubing (inside diameter, 0.062 inch; outside diameter, 0.095 inch) containing 0.5 cm of estradiol/cholesterol diluted at a ratio of 1:10 (w:w). […] Statistical significance of treatment effect was assessed by repeated measures ANOVA after applying a power transformation to equalize residual variances and linearize the tumor growth curves.

In the case of O.O.O.OO.OO.[K+].[OH-].[V].c1cnc2c(c1)ccc1cccnc12 [bpV(phen), potassium bisperoxo(1,10-phenanthroline)oxovanadate], the IC50 [1] is reported as roughly 2000 nM, the “protection against infectious challenge (adjuvant potential)” value (Leishmania major) is reported as “complete protection” and the “most effective dose for the induction of chemokine gene expression” value (murine B10R macrophages) is reported as 10 µM. For the same molecule, the “expression of RANTES mRNA” value (murine B10R macrophages; 10 μM bpV(phen)) was “increased in a time-dependent manner over 24 h”, the “time of maximum levels of MIP-1a, MIP-2, IP-10, and MCP-1 chemokines mRNA” value (murine B10R macrophages; 10 μM bpV(phen)) was 4 h and the “time of optimal expression of MIP-1β mRNA” value (murine B10R macrophages; 10 μM bpV(phen)) was 8 h. The “RANTES, MIP-1a/β MIP-2, IP-10 and MCP-1 chemokine mRNA levels” value (murine B10R macrophages; various concentrations (1-50 μM)) was “increased” and the tumor size [2] was “do not resulted in increase of tumor size”.
